# Data: US12612384B2, “Heterocyclic CYP4A inhibitor compounds and compositions thereof” (MBD CO., LTD., priority 2021, dated 2026)
# Target: T1, CYP4A (Homo sapiens, UniProt Q02928)
# T1 construct: purchased; host or cells: bacterial membranes ('bactosome')
# T1 sequence (Q02928 5-519): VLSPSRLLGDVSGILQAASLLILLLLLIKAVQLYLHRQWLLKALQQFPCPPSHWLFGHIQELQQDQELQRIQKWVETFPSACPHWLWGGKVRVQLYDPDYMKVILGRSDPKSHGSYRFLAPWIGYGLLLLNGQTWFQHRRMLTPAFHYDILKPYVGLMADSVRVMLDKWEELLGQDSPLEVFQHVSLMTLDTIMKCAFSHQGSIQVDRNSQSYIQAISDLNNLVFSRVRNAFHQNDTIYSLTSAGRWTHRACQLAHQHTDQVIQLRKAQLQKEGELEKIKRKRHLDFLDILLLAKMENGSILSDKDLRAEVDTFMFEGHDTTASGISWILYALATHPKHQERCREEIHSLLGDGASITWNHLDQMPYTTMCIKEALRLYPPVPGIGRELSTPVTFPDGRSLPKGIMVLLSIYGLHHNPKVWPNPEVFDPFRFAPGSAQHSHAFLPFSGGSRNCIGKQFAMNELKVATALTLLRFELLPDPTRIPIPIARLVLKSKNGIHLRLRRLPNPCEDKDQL
# Experiment: CYP4A enzyme assay (luminescence, Luciferin-ME)
# Type: biochemical
# Conditions: Compound concentration 5 μM; 50%-70%; read-out: % Inhibition 50%-70%
# Summary of the method: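 Compounds (5 μM) were preincubated 15 min at room temperature with CYP4A bactosomes in 100 mM KPO4, 0.1% BSA, 1 mM DTT. Reaction ran 30 min at room temperature after adding 5 mM Luciferin-ME and NADPH regeneration system. Luminescence after 15 min with detection reagent; inhibition judged by comparing well signals.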
row,Structure (SMILES),inhibition at 5 µM
1,"O=C(C1CCCN(S(=O)(=O)CCCO)C1)N1CCN(c2ccnc3ccccc23)CC1 (stereo not shown) [Example 133, (1-((3-hydroxypropyl)sulfonyl)piperidin-3-yl)(4-(quinolin-4-yl)piperazin-1-yl)methanone]",50 to 70%
2,"Cn1cnnc1CN1CC[C@H](C(=O)N2CCN(c3ccnc4cc(F)ccc34)CC2)C1 [Example 154, (S)-(4-(7-fluoroquinolin-4-yl)piperazin-1-yl)(1-((4-methyl-4H-1,2,4-triazol-3-yl)methyl)pyrrolidin-3-yl)methanone]",50 to 70%
3,"COc1ccc2c(N3CCN(C(=O)C4CCCN(C(=O)C5CCCCC5)C4)CC3)ccnc2c1 (stereo not shown) [Example 92, (4-(7-methoxyquinolin-4-yl)piperazin-1-yl)(1-(cyclohexylcarbonyl)piperidin-3-yl)methanone]",50 to 70%
4,"Cc1cc(N2CCN(C(=O)C3CCCN(C(=O)c4ccc(F)cc4)C3)CC2)c2ccccc2n1 (stereo not shown) [Example 101, (1-(4-fluorobenzoyl)piperidin-3-yl)(4-(2-methylquinolin-4-yl)piperazin-1-yl)methanone]",50 to 70%
5,"Cc1cc(N2CCN(C(=O)C3CCCN(C(=O)c4ccncc4)C3)CC2)c2ccccc2n1 (stereo not shown) [Example 104, (1-isonicotinoylpiperidin-3-yl)(4-(2-methylquinolin-4-yl)piperazin-1-yl)methanone]",50 to 70%
6,"O=C(C1CCCN(S(=O)(=O)c2cccnc2)C1)N1CCN(c2cc(C(F)(F)F)nc3ccccc23)CC1 (stereo not shown) [Example 129, (1-(pyridin-3-ylsulfonyl)piperidin-3-yl)(4-(2-(trifluoromethyl)quinolin-4-yl)piperazin-1-yl)methanone]",50 to 70%
7,"COc1ccc2c(N3CCN(C(=O)C4CCCN(C(=O)c5ccccc5)C4)CC3)ccnc2c1 (stereo not shown) [Example 91, (1-benzoylpiperidin-3-yl)(4-(7-methoxyquinolin-4-yl)piperazin-1-yl)methanone]",50 to 70%
8,"O=C(C1CCCN(C(=O)C2CCCCC2)C1)N1CCN(c2ccnc3cc(Cl)ccc23)CC1 (stereo not shown) [Example 86, (4-(7-chloroquinolin-4-yl)piperazin-1-yl)(1-(cyclohexylcarbonyl)piperidin-3-yl)methanone]",50 to 70%

# Same assay, conditions: Compound concentration 5 μM; 70%-90%; read-out: % Inhibition 70%-90%
row,Structure (SMILES),inhibition at 5 µM
1,"O=C(c1ccc(F)cc1)N1CCCC(C(=O)N2CCN(c3ccnc4cc(F)ccc34)CC2)C1 (stereo not shown) [Example 106, (1-(4-fluorobenzoyl)piperidin-3-yl)(4-(7-fluoroquinolin-4-yl)piperazin-1-yl)methanone]",70 to 90%
2,"NCCn1ccnc1S(=O)(=O)N1CC[C@H](C(=O)N2CCN(c3ccnc4cc(F)ccc34)CC2)C1 [Example 150, (S)-(1-((1-(2-aminoethyl)-1H-imidazol-2-yl)sulfonyl)pyrrolidin-3-yl)(4-(7-fluoroquinolin-4-yl)piperazin-1-yl)methanone]",70 to 90%
3,"Cn1cnc(S(=O)(=O)N2CC[C@H](C(=O)N3CCN(c4ccnc5cc(F)ccc45)CC3)C2)n1 [Example 139, (S)-(4-(7-fluoroquinolin-4-yl)piperazin-1-yl)(1-((1-methyl-1H-1,2,4-triazol-3-yl)sulfonyl)pyrrolidin-3-yl)methanone]",70 to 90%
4,"O=C(c1ccncc1)N1CCCC(C(=O)N2CCN(c3ccnc4cc(Cl)ccc34)CC2)C1 (stereo not shown) [Example 87, (4-(7-chloroquinolin-4-yl)piperazin-1-yl)(1-(pyridine-4-ylcarbonyl)piperidin-3-yl)methanone]",70 to 90%
5,"COc1ccc(S(=O)(=O)N2CCC(C(=O)N3CCN(c4ccnc5ccccc45)CC3)C2)cn1 (stereo not shown) [Example 51, (1-((6-methoxypyridin-3-yl)sulfonyl)pyrrolidin-3-yl)(4-(quinolin-4-yl)piperazin-1-yl)methanone]",70 to 90%
6,"O=C(C1CCCN(S(=O)(=O)c2ccc(F)cc2)C1)N1CCN(c2ncnc3ccccc23)CC1 (stereo not shown) [Example 76, (1-((4-fluorophenyl)sulfonyl)piperidin-3-yl)(4-(quinazolin-4-yl)piperazin-1-yl)methanone]",70 to 90%
7,"Cc1ccc(S(=O)(=O)N2CCC(C(=O)N3CCN(c4ccnc5ccccc45)CC3)C2)s1 (stereo not shown) [Example 37, (1-((5-methylthiophen-2-yl)sulfonyl)pyrrolidin-3-yl)(4-(quinolin-4-yl)piperazin-1-yl)methanone]",70 to 90%
8,"O=C(c1ccncc1)N1CCCC(C(=O)N2CCN(c3ccnc4cc(F)ccc34)CC2)C1 (stereo not shown) [Example 109, (4-(7-fluoroquinolin-4-yl)piperazin-1-yl)(1-isonicotinoylpiperidin-3-yl)methanone]",70 to 90%
9,"Cc1ccc2c(N3CCN(C(=O)[C@H]4CCN(S(=O)(=O)c5ncn[nH]5)C4)CC3)ccnc2c1 [Example 163, (S)-(1-((1H-1,2,4-triazol-5-yl)sulfonyl)pyrrolidin-3-yl)(4-(7-methylquinolin-4-yl)piperazin-1-yl)methanone]",70 to 90%
10,"COc1ccc(C(=O)N2CCCC(C(=O)N3CCN(c4ccnc5ccccc45)CC3)C2)cc1 (stereo not shown) [Example 116, (1-(4-methoxyphenylcarbonyl)piperidin-3-yl)(4-(quinolin-4-yl)piperazin-1-yl)methanone]",70 to 90%

# Same assay, conditions: Compound concentration 5 μM; Greater than 90%; read-out: % Inhibition Greater than 90%
row,Structure (SMILES),inhibition at 5 µM
1,"O=C([C@H]1CCN(S(=O)(=O)c2ccccn2)C1)N1CCN(c2ccnc3cc(F)ccc23)CC1 [Example 157, (S)-(4-(7-fluoroquinolin-4-yl)piperazin-1-yl)(1-(pyridin-2-ylsulfonyl)pyrrolidin-3-yl)methanone]",> 90%
2,"O=C([C@H]1CCN(S(=O)(=O)c2nccn2CCO)C1)N1CCN(c2ccnc3cc(F)ccc23)CC1 [Example 148, (S)-(4-(7-fluoroquinolin-4-yl)piperazin-1-yl)(1-((1-(2-hydroxyethyl)-1H-imidazol-2-yl)sulfonyl)pyrrolidin-3-yl)methanone]",> 90%
3,"CC(=O)Nc1ccc(S(=O)(=O)N2CCC(C(=O)N3CCN(c4ccnc5ccccc45)CC3)C2)cc1 (stereo not shown) [Example 21, N-(4-((3-(4-(quinolin-4-yl)piperazine-1-carbonyl)pyrrolidin-1-yl)sulfonyl)phenyl)acetamide]",> 90%
4,"Cc1nn(C)c(C)c1S(=O)(=O)N1CCC(C(=O)N2CCN(c3ccnc4cc(F)ccc34)CC2)C1 (stereo not shown) [Example 12, (4-(7-fluoroquinolin-4-yl)piperazin-1-yl)(1-((1,3,5-trimethyl-1H-pyrazol-4-yl)sulfonyl)pyrrolidin-3-yl)methanone]",> 90%
5,"O=C(c1nn[nH]n1)N1CC[C@H](C(=O)N2CCN(c3ccnc4cc(F)ccc34)CC2)C1 [Example 162, (S)-(1-(2H-tetrazole-5-carbonyl)pyrrolidin-3-yl)(4-(7-fluoroquinolin-4-yl)piperazin-1-yl)methanone]",> 90%
6,"COCCn1cnc(S(=O)(=O)N2CC[C@H](C(=O)N3CCN(c4ccnc5cc(F)ccc45)CC3)C2)n1 [Example 143, (S)-(4-(7-fluoroquinolin-4-yl)piperazin-1-yl)(1-((1-(2-methoxyethyl)-1H-1,2,4-triazol-3-yl)sulfonyl)pyrrolidin-3-yl)methanone]",> 90%
7,"O=C([C@H]1CCN(S(=O)(=O)c2ncn[nH]2)C1)N1CCN(c2ccnc3cc(F)c(F)cc23)CC1 [Example 168, (S)-(1-((1H-1,2,4-triazol-5-yl)sulfonyl)pyrrolidin-3-yl)(4-(6,7-difluoroquinolin-4-yl)piperazin-1-yl)methanone]",> 90%
8,"O=C(C1CCN(S(=O)(=O)c2ccc(-c3cccnc3)cc2)C1)N1CCN(c2ccnc3ccccc23)CC1 (stereo not shown) [Example 32, (1-((4-(pyridin-3-yl)phenyl)sulfonyl)pyrrolidin-3-yl)(4-(quinolin-4-yl)piperazin-1-yl)methanone]",> 90%
9,"Cn1ccnc1S(=O)(=O)N1CCC(C(=O)N2CCN(c3ccnc4cc(F)ccc34)CC2)C1 (stereo not shown) [Example 5, (4-(7-fluoroquinolin-4-yl)piperazin-1-yl)(1-((1-methyl-1H-imidazol-2-yl)sulfonyl)pyrrolidin-3-yl)methanone]",> 90%
10,"CC(=O)Cn1cnc(S(=O)(=O)N2CC[C@H](C(=O)N3CCN(c4ccnc5cc(F)ccc45)CC3)C2)n1 [Example 142, (S)-1-(3-((3-(4-(7-fluoroquinolin-4-yl)piperazine-1-carbonyl)pyrrolidin-1-yl)sulfonyl)-1H-1,2,4-triazol-1-yl)propan-2-one]",> 90%
11,"CC(=O)Nc1nc(C)c(S(=O)(=O)N2CC[C@H](C(=O)N3CCN(c4ccnc5ccccc45)CC3)C2)s1 [Example 49, (S)—N-(4-methyl-5-((3-(4-(quinolin-4-yl)piperazine-1-carbonyl)pyrrolidin-1-yl)sulfonyl)thiazol-2-yl)acetamide]",> 90%
12,"O=C(C1CCN(S(=O)(=O)c2ccc(-c3cccnc3)cc2)CC1)N1CCN(c2ccnc3cc(F)ccc23)CC1 [Example 58, (4-(7-fluoroquinolin-4-yl)piperazin-1-yl)(1-((4-(pyridin-3-yl)phenyl)sulfonyl)piperidin-4-yl)methanone]",> 90%
13,"Cn1ccnc1S(=O)(=O)N1CCCC(C(=O)N2CCN(c3ccnc4cc(F)ccc34)CC2)C1 (stereo not shown) [Example 118, (4-(7-fluoroquinolin-4-yl)piperazin-1-yl)(1-(1-methyl-1H-imidazol-2-ylsulfonyl)piperidin-3-yl)methanone]",> 90%
